Laboratory results from paper PMC5909473, “Isoform-selective activity-based profiling of ERK signaling” (Chemical Science, 2018).

Key:
[1] = target: T1, ERK1 (Homo sapiens, UniProt P27361); assay: competitive ATP acyl phosphate activity-based profiling, SILAC LC-MS/MS in A549 lysate; type: biochemical; design: gene MAPK3; native endogenous ERK1 in A549 soluble proteome
[2] = target: T1, ERK1; assay: competition of ATP acyl phosphate probe labelling by […] free ATP, SILAC LC-MS/MS; type: cell-based; design: gene MAPK3; native endogenous ERK1 in lung cancer cell proteomes
[3] = target: T2, ERK2 (Homo sapiens, UniProt P28482); assay: as above; type: cell-based
T2 construct: gene MAPK1; native endogenous ERK2 in lung cancer cell proteomes
T2 sequence (P28482 2-360): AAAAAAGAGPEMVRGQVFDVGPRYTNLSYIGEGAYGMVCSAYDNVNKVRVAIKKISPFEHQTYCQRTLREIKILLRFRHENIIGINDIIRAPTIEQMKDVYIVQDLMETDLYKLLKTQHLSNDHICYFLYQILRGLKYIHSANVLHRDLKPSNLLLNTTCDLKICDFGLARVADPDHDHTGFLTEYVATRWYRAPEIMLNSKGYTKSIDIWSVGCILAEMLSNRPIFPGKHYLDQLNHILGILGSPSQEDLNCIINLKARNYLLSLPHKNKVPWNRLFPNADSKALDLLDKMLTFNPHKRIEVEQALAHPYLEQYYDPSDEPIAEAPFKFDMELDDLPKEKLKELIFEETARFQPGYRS

T1 sequence (P27361 2-379): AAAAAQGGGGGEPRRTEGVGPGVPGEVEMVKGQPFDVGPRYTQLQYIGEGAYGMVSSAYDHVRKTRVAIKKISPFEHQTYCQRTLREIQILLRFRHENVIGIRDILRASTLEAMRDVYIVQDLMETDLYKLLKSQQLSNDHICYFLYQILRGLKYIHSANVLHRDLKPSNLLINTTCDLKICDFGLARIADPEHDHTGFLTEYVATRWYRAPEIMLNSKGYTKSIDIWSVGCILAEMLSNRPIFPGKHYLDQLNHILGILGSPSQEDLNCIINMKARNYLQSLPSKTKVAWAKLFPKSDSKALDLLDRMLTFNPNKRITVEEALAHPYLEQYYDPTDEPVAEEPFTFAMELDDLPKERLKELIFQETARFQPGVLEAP

SMILES: CC(C)Nc1cc(-c2c[nH]c(C(=O)N[C@H](CO)c3cccc(Cl)c3)c2)c(Cl)cn1 [BVD-523]
- IC50 [1]: 15 nM

SMILES: Nc1ncnc2c1ncn2[C@@H]1O[C@H](COP(=O)(O)OP(=O)(O)OP(=O)(O)O)[C@@H](O)[C@H]1O [ATP]
- competition of ATP acyl phosphate probe labelling by 1 mM free ATP, SILAC LC-MS/ [2]: both ERK1 and ERK2 probe-modified peptides were highly competed with ATP treatment
- competition of ATP acyl phosphate probe labelling by 1 mM free ATP, SILAC LC-MS/ [3]: both ERK1 and ERK2 probe-modified peptides were highly competed with ATP treatment
